Source: PubChem BioAssay (NCI)
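Interpolation was linear, between the two tested concentrations surrounding the appropriate level; five concentrations were tested over 48 hours in 96-well plates. TGI is the concentration that stops growth completely.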 Where a SMILES comes first, the peptide text is derived from it. The star is where a group is joined. Boc = CC(C)(C)OC(=O)*

How the values were obtained:
Experiment in all cases: growth of human tumour cells (NCI), 48 h
IGROV1 ovarian = system: IGROV1 ovarian
SNB-78 CNS = system: SNB-78 CNS
TK-10 renal = system: TK-10 renal
XF 498 CNS = system: XF 498 CNS
M19-MEL melanoma = system: M19-MEL melanoma
A498 renal = system: A498 renal
NCI-H522 lung = system: NCI-H522 lung
SF-539 CNS = system: SF-539 CNS
M14 melanoma = system: M14 melanoma
LXFL 529 NSCLC = system: LXFL 529 NSCLC
CCRF-CEM leukemia = system: CCRF-CEM leukemia
DU-145 prostate = system: DU-145 prostate

Structure (SMILES)	TGI (IGROV1 ovarian)	TGI (SNB-78 CNS)	TGI (TK-10 renal)	TGI (XF 498 CNS)	TGI (M19-MEL melanoma)	TGI (A498 renal)	TGI (NCI-H522 lung)	TGI (SF-539 CNS)	TGI (M14 melanoma)	TGI (LXFL 529 NSCLC)	TGI (CCRF-CEM leukemia)	TGI (DU-145 prostate)
N=S(c1ccccc1)c1ccccc1[N+](=O)[O-] (centres undefined)	32.9 µM	> 100 µM	34.8 µM	19.6 µM	29.7 µM	> 100 µM	11.7 µM	37.8 µM	27.7 µM	30.9 µM	43.4 µM	–
Cc1csc(-c2cn(C)c3c2C(=O)C(N)=CC3=O)n1	13.4 µM	–	> 100 µM	–	–	> 100 µM	> 100 µM	> 100 µM	> 47.4 µM	–	> 100 µM	> 100 µM
CN(C)Cc1cc(C(=O)/C=C/c2ccc(O)cc2)cc(CN(C)C)c1O	> 100 µM	–	> 100 µM	–	–	> 100 µM	75.6 µM	> 100 µM	> 100 µM	–	88.3 µM	> 100 µM
Cc1cc2[nH]c3[nH]c(=O)[nH]c(=O)c3c2cc1C	> 100 µM	–	> 100 µM	–	–	> 100 µM	> 100 µM	> 100 µM	> 100 µM	–	> 100 µM	> 100 µM
C=CCO/N=C/c1cc(NC(=S)c2ccoc2C)ccc1Cl	32.2 µM	–	42.2 µM	–	–	58.6 µM	23.7 µM	44.6 µM	37.9 µM	–	> 100 µM	27.8 µM
O=C1c2cc3c(cc2CC1Br)CCC3 (centres undefined)	9.3 µM	–	8.77 µM	–	–	32.2 µM	3 µM	4.2 µM	2.85 µM	–	2.18 µM	29.4 µM
COc1ccc(C(OCC2OC(n3cc(C)c(=O)[nH]c3=O)CC2n2cc(Cn3cc(F)c(=O)[nH]c3=O)nn2)(c2ccccc2)c2ccccc2)cc1 (centres undefined)	36.4 µM	–	33.9 µM	–	–	28.6 µM	21.5 µM	23.9 µM	27.9 µM	–	9.85 µM	27.1 µM
O=C(NCCN1CCOCC1)c1ccc2cc(C(=O)N3CC(CCl)c4ccc([N+](=O)[O-])cc43)[nH]c2c1 (centres undefined)	> 100 µM	–	36.6 µM	–	–	20 µM	39.7 µM	> 100 µM	> 100 µM	–	> 100 µM	49.3 µM
CC(C)(C)OC(=O)NCC(=O)NCC(=O)NCC(=O)NCC(=O)O (Boc-GGGG-OH)	> 100 µM	–	> 100 µM	–	–	> 100 µM	> 100 µM	> 100 µM	> 100 µM	–	> 100 µM	> 100 µM
Cc1ccccc1C(O)(c1nccn1C)c1nccn1C	> 100 µM	–	> 100 µM	–	–	> 100 µM	> 100 µM	> 100 µM	> 100 µM	–	> 100 µM	> 100 µM
CCCCC1c2c([nH]c3ccccc23)C2C(=O)N(c3ccc(OC)cc3)C(=O)C2C1CCC (centres undefined)	> 10 µM	–	> 10 µM	–	–	6.71 µM	> 10 µM	5.11 µM	8.53 µM	–	9.12 µM	> 10 µM
COc1ccc(C2(CC(C)O)SCCCS2)cc1 (centres undefined)	> 100 µM	–	> 100 µM	–	–	> 100 µM	> 100 µM	> 100 µM	> 100 µM	–	> 100 µM	> 100 µM
COCOc1ccc(Cn2c(=O)n(C)c(=O)c3c2ncn3C)cc1[N+](=O)[O-]	> 100 µM	> 100 µM	> 100 µM	–	> 100 µM	–	> 100 µM	> 100 µM	> 100 µM	> 100 µM	> 100 µM	–
c1ccc2c(c1)NC(C1OC3CCCN3C1C1Nc3ccccc3S1)S2 (centres undefined)	> 100 µM	–	> 100 µM	–	–	> 100 µM	> 100 µM	> 100 µM	> 100 µM	–	> 100 µM	> 100 µM
O=C1CN2C(c3ccccc3)=NN(c3ccc([N+](=O)[O-])cc3)C2(c2ccccc2)c2cc(Cl)ccc2N1CC1CC1 (centres undefined)	> 100 µM	–	> 100 µM	–	–	> 100 µM	> 100 µM	> 100 µM	> 100 µM	–	> 100 µM	> 100 µM
